Test results reported in patent US20050123583A1, “Medical use of reuterin” (priority 2000, published 2005).

How the values were obtained:
[1] = system: Escherichia coli (ATCC 25922), Pseudomonas aeruginosa (ATCC 27853), Staphylococcus aureus (ATCC 25923), and Bacillus subtillis (ATCC 6633); test: Antimicrobial activity of reuterin, glutaraldehyde as control; assay type: cell-based
Excerpt: Antimicrobial activity of reuterin was studied (J Biomed Mater Res 2002;61:360-369) and disclosed in the present invention, wherein glutaraldehyde is used as a control. The microorganisms tested in the study are Escherichia coli (ATCC 25922), Pseudomonas aeruginosa (ATCC 27853), Staphylococcus aureus (ATCC 25923), and Bacillus subtillis (ATCC 6633).

[2] = system: 3T3 fibroblasts (BALB/3T3 C1A31-1-1); test: Cytotoxicity, light microscopic observation of cultured cells; assay type: cell-based; conditions: 24 hours of culture
Experimental: (§1) The cytotoxicity of reuterin was also studied (J Biomed Mater Res 2002;61:360-369) and disclosed in the present invention, wherein glutaraldehyde is again used as a control. The cytotoxicity of the test reagents (glutaraldehyde vs. reuterin) was evaluated in vitro using a mouse-derived established cell line of 3T3 fibroblasts (BALB/3T3 C1A31-1-1). The assay (light microscopic observation and MTT assay) was used to measure the proportion of viable cells following a test reagent-treated culture.
In the assay, 3T3 fibroblasts were seeded in 24-well plates at 5×10^4 cells/well in 1 ml Dulbecco's modified eagle medium (DMEM, Gibco 430-2800EG, Grand Island, N.Y., USA) with 10% fetal calf serum (FCS, Hyclone Laboratories, Logan, Ut., USA). The cell culture was maintained in a humidified incubator at 37° C. with 10% CO2 in air. Cells in log phase of growth were then exposed to a new DMEM medium drugged with varying concentrations of glutaraldehyde or reuterin. After 24 hours of culture, the growth media in the wells were removed and the cells were photographed using light microscopy. Subsequently, the cells were washed with phosphate buffered saline (PBS) twice and surviving cell numbers were then determined indirectly by 3-(4,5-dimethylthiazol-yl)-2,5-diphenyltetrazolium bromide (MTT, Sigma Chemical Co., St. Louis, Mo., USA) dye reduction.

[3] = system: 3T3 fibroblasts (BALB/3T3 C1A31-1-1); test: Cytotoxicity, MTT assay; assay type: cell-based, mouse; conditions: 24 hours of culture
Experimental: as §1
In the assay, 3T3 fibroblasts were seeded in 24-well plates at 5×10^4 cells/well in 1 ml Dulbecco's modified eagle medium (DMEM, Gibco 430-2800EG, Grand Island, N.Y., USA) with 10% fetal calf serum (FCS, Hyclone Laboratories, Logan, Ut., USA). […] Subsequently, the cells were washed with phosphate buffered saline (PBS) twice and surviving cell numbers were then determined indirectly by 3-(4,5-dimethylthiazol-yl)-2,5-diphenyltetrazolium bromide (MTT, Sigma Chemical Co., St. Louis, Mo., USA) dye reduction.
The MTT assay is based on the reduction of MTT, a yellow soluble dye by the mitochondrial succinate dehydrogenase to form an insoluble dark blue formazan product. […] Optical density readings were then performed using a multiwell scanning spectrophotometer (MRX Microplate Reader, Dynatech Laboratories Inc., Chantilly, Va., USA) at a wavelength of 570 nm. […]

Structure (SMILES): O=CCCCC=O [glutaraldehyde, reference compound]
- values for glutaraldehyde relative to those for reuterin ([1]; growth-preventing and lethal concentrations): 2˜3 times
- state of cultured cells in photomicrographs ([2]; 0.05 ppm): confluent
- state of cultured cells in photomicrographs ([2]; 5 ppm): all the cells cultured were found dead
- MTT50 concentration (concentration reducing optical density reading to half that of the control) [3]: approximately 4 ppm

Structure (SMILES): O=CCCO [reuterin, β-hydroxypropinoaldehyde]
- concentration that can prevent the growth of the tested microorganisms ([1]; all four tested microorganisms): 20 to 35 ppm
- concentration that resulted in the death of the tested microorganisms ([1]; all four tested microorganisms): 40 to 50 ppm
- sensitivity of tested microorganisms ([1]; gram-positive and gram-negative bacteria): sensitive
- state of cultured cells in photomicrographs ([2]; 15 ppm): confluent
- MTT50 concentration (concentration reducing optical density reading to half that of the control) [3]: about 20 ppm
